Results reported in PMC11275057, “Biochemical and Functional Profiling of Thioredoxin-Dependent Cytosolic GPX-like Proteins in Euglena gracilis” (Biomolecules, 2024).

Legend:
rEgGPXL-4 = tested on: T1, rEgGPXL-4; test: NADPH oxidation at […] nm, thioredoxin/thioredoxin reductase coupled; format: biochemical, Euglena gracilis; settings: 6 µM yeast Trx-2 as electron donor, 0.3 µM yeast Trx reductase, 0.2 mM NADPH, 20 mM HEPES-NaOH pH 7.5; t-BOOH up to 0.04 mM
T1 construct: gene EgGPXL-4; full-length ORF, 159 residues, no signal peptide, pCold-II 6xHis tag, E. coli BL21, TALON purified, about 18-20 kDa; plant-type GPX; cDNA 787 bp; printed Cys-64, Gln-66, Phe-67, Glu-71, Gly-100, Asn-126, Phe-127, Lys-129, Gly-136

rEgGPXL-2 = tested on: T2, rEgGPXL-2; test: as above; format: biochemical, Euglena gracilis; settings: 6 µM yeast Trx-2 as electron donor, 0.3 µM yeast Trx reductase, 0.2 mM NADPH, 20 mM HEPES-NaOH pH 7.5; t-BOOH up to 0.04 mM
T2 construct: gene EgGPXL-2; full-length ORF, 173 residues, no signal peptide, pCold-II 6xHis tag, E. coli BL21, TALON purified, about 18-20 kDa; animal-type GPX, Cys-45 in place of Sec; cDNA 737 bp

## CC(C)(C)OO [t-BOOH]
rEgGPXL-4
  Km: 38.5 ± 1.6 µM
rEgGPXL-2
  Km: 28.5 ± 3.1 µM
